Results taken from PMC8348686, “The Pharmacological Profile of Second Generation Pyrovalerone Cathinones and Related Cathinone Derivative” (International Journal of Molecular Sciences, 2021).
Entries after “also recorded” stand apart in the source; their conditions may differ. Where two headings read alike, the source gives them in different places.

Tests used:
[1] = target: T1, hNET (Homo sapiens, UniProt P23975); experiment: Transporter-mediated monoamine efflux, [3H]-NE preloaded HEK293 cells; type: cell-based; design: expressed in transfected cells; host or cells: HEK293; settings: 100 μM of drug, 45 min, HEK293 hNET preloaded with [3H]-NE; data for some pyrovalerones adapted from [13]
T1 sequence (P23975 whole entry): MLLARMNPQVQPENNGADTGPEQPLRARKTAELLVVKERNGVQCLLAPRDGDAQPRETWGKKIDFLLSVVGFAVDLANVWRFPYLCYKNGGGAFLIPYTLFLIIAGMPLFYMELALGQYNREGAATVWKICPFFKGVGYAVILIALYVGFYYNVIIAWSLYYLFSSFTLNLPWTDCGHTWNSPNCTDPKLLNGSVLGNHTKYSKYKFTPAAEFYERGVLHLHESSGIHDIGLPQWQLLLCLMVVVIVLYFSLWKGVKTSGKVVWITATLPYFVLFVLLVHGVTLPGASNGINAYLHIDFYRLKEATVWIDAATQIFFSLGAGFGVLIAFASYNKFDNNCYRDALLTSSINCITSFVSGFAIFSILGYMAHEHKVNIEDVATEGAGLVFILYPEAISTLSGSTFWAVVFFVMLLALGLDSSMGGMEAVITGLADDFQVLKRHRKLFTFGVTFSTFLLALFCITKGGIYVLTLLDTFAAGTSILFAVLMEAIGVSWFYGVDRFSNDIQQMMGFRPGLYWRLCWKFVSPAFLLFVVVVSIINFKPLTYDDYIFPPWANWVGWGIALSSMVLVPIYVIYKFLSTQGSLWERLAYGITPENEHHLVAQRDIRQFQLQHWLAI
Protocol: (§1) Monoamine efflux was assessed using human embryonic kidney 293 (HEK293) cells (Invitrogen, Zug, Switzerland) stably transfected with the human norepinephrine (hNET), dopamine (hDAT), or serotonin (hSERT) uptake transporters. In summary, the cells were seeded in poly-D-lysine coated XF24 cell culture microplates (Seahorse Biosciences, North Billerica, MA, USA) and cultured overnight at a concentration of 100,000 cells per well.
(§2) The cells were then exposed to Krebs–HEPES release buffer (85 μL/well) comprised of 130 mM NaCl, 1.3 mM KCl, 2.2 mM CaCl2, 1.2 mM MgSO4, 1.2 mM KH2PO4, 10 mM HEPES, and 10 mM D-glucose at a pH of 7.5, which also contained 10 nM radiolabelled neurotransmitter ([^3H]-5-HT for SERT, [^3H]-DA for DAT or [^3H]-NE for NET), 1 μM unlabelled neurotransmitter (DA or NE, only), 10 μM pargyline, and 0.2 mg/mL of ascorbic acid. This enabled the loading of the cells with their respective neurotransmitters via the uptake transporters. Afterwards, the release buffer was replaced by fresh buffer to wash the cells twice and the cells were then incubated for 15 min (DAT and SERT) or 45 min (NET) to 100 μM of test drugs dissolved in 1 mL of Krebs–HEPES buffer while shaking at 300 rpm and 37 °C. Termination of the release reaction occurred by removing the buffer from the cells and washing them with ice-cold buffer. Next, 50 μL of lysis buffer was added to the cells for 1 h in order to lyse the cells. Thereafter, 40 μL of the lysed cell mixture was transferred into scintillation vials (Perkin–Elmer, Schwerzenbach, Switzerland) containing 3 mL of scintillation fluid (Ultimagold, Perkin–Elmer, Schwerzenbach, Switzerland) and measured using liquid scintillation (as previously described in Section 2.2).
(§3) To quantify the “pseudo efflux” caused by the non-transporter mediated monoamine release and successive reuptake inhibition, each monoamine efflux experiment included a control where the cells were exposed to each respective transporter blocker (nisoxetine for NET, mazindol for DAT, and citalopram for SERT). The radioactivity inside the cells without any drug was set as 100%. The nonspecific release was subtracted from the total observed release at 100 μM of each examined drug to calculate the specific transporter mediated release. One single concentration of the test drugs was used (100 μM) and release exposure durations were set based on previously evaluated kinetics of the release-over-time curves.
(§4) An ANOVA followed by a Holm–Sidak test was conducted to compare each drug’s specific transporter-mediated efflux based on at least three independent experiments to the control condition.

[2] = target: T2, hSERT (Homo sapiens, UniProt P31645); experiment: Transporter-mediated monoamine efflux, [3H]-5-HT preloaded HEK293 cells; type: cell-based; design: expressed in transfected cells; host or cells: HEK293; settings: 100 μM of drug, 15 min, HEK293 hSERT preloaded with [3H]-5-HT; data for some pyrovalerones adapted from [13]
T2 sequence (P31645 whole entry): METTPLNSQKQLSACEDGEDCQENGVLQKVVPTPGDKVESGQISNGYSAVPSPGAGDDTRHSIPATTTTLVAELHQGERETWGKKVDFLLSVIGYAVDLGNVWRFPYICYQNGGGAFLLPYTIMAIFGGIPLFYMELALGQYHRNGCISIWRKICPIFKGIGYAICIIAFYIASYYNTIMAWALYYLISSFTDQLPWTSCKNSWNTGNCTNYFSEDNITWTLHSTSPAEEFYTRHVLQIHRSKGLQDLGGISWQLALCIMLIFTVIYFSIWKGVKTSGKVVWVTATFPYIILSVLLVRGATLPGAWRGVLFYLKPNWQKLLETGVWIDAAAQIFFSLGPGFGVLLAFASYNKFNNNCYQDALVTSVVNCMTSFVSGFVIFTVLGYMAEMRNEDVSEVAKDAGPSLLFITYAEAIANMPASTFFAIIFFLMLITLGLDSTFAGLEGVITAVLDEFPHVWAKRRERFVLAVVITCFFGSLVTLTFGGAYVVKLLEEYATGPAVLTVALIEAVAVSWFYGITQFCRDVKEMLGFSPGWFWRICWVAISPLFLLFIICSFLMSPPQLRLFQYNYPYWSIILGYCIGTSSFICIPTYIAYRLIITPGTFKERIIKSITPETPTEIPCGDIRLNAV
Protocol: as §1, §2, §3, §4

[3] = target: hDAT (Homo sapiens, UniProt Q01959); settings: read-out: hDAT Receptor Binding Ki ± SD, [3H]-WIN-35,428, cited from earlier work
Chain of hDAT (Q01959 whole entry): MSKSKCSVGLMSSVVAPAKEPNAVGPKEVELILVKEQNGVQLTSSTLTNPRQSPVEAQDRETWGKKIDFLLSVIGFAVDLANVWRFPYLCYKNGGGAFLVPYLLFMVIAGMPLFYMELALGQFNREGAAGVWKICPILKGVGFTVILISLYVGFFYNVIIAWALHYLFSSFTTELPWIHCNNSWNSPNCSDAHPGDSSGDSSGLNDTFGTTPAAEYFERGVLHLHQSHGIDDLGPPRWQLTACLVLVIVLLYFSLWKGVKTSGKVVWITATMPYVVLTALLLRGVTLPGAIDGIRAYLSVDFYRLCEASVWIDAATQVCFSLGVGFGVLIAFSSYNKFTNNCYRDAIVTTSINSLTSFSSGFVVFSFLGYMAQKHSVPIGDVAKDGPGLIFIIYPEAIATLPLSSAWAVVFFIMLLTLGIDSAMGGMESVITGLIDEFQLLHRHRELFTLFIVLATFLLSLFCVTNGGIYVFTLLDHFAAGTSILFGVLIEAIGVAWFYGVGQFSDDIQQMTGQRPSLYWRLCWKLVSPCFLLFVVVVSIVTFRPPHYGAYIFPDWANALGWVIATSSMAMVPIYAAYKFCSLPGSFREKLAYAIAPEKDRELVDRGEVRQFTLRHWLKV

[4] = target: Mouse TAAR1; settings: [3H]-RO5166017, read-out: Mouse TAAR1 Receptor Binding Ki ± SD, cited from earlier work
[5] = target: Rat TAAR1; settings: [3H]-RO5166017, cited from earlier work; for Ki: read-out: Rat TAAR1 Receptor Binding Ki ± SD
[6] = target: T1, hNET; settings: read-out: hNET Receptor Binding Ki ± SD, N-Methyl-[3H]-nisoxetine, cited from earlier work
[7] = target: T3, adrenergic α1A receptor (Homo sapiens, UniProt P35348); settings: [3H]-Prazosin, read-out: α1A Receptor Binding Ki ± SD, cited from earlier work
T3 sequence (P35348 1-466): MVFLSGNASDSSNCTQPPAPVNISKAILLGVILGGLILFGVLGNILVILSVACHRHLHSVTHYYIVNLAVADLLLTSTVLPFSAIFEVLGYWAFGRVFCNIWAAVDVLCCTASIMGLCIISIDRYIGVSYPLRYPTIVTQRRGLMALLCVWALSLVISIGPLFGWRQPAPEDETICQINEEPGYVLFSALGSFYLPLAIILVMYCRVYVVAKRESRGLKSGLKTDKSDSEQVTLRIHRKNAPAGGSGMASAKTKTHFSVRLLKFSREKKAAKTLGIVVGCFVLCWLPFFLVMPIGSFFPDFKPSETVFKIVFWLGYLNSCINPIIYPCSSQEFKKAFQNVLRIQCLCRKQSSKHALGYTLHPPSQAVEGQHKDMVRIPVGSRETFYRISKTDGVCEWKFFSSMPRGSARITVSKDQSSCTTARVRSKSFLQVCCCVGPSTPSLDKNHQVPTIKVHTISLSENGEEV

[8] = target: T2, hSERT; settings: read-out: hSERT Receptor Binding Ki ± SD, [3H]-Citalopram, cited from earlier work
[9] = target: dopaminergic D2 receptor (Homo sapiens, UniProt P14416); settings: read-out: D2 Receptor Binding Ki ± SD, [3H]-Spiperone, cited from earlier work
Chain of dopaminergic D2 receptor (P14416 whole entry): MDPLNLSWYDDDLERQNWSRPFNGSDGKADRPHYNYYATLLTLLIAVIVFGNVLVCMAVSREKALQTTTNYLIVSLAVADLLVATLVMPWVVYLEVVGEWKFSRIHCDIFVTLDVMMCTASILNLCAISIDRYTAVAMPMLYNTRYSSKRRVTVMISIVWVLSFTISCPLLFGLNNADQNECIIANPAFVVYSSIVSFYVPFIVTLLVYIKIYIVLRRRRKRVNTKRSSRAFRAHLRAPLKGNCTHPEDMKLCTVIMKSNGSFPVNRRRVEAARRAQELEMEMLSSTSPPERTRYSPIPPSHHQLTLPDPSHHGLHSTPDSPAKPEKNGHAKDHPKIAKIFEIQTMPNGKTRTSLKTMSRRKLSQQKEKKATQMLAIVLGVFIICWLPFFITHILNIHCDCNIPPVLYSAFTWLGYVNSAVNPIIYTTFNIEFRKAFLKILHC

[10] = ref Luethi, Kolaczynska et al. (2019)

SMILES: Cc1ccc(C(=O)C(C)N2CCCC2)cc1 (stereo not drawn) [4-MePPP, 4-methyl-α-pyrrolidinopropiophenone]
- Transporter-mediated monoamine efflux (NE) vs nisoxetine [1]: no monoamine efflux was observed
- Transporter-mediated monoamine efflux (5-HT) vs citalopram [2]: no monoamine efflux was observed

SMILES: CCC(C(=O)c1ccc(F)cc1)N1CCCC1 (stereo not drawn) [4F-PBP, 4-fluoro-α-pyrrolidinobutiophenone]
- Transporter-mediated monoamine efflux (NE) vs nisoxetine [1]: did not induce any monoamine efflux
- Transporter-mediated monoamine efflux (5-HT) vs citalopram [2]: did not induce any monoamine efflux

SMILES: CNC(C)Cc1ccc2c(c1)OCO2 (stereo not shown) [MDMA, 3,4-methylenedioxymethamphetamine, reference compound]
- Ki [3, 10]: > 8.5 µM
- Ki [4, 10]: 3.1 ± 0.7 µM
- Ki [5, 10]: 0.25 ± 0.01 µM
- Ki [6, 10]: > 8.7 µM
- Ki [7, 10]: 6.9 ± 1.2 µM
- Transporter-mediated monoamine efflux (NE) vs nisoxetine [1]: causes significant release at the transporters
- Ki [8, 10]: > 7.5 µM
- Ki [9, 10]: > 13 µM
- Transporter-mediated monoamine efflux (5-HT) vs citalopram [2]: causes significant release at the transporters

SMILES: CCC(C(=O)c1ccc2c(c1)OCO2)N1CCCC1 (stereo not drawn) [MDPBP, 3,4-methylenedioxy-α-pyrrolidinobutiophenone]
- Ki ([3]; ref Rickli et al. (2015)): 0.02 ± 0.002 µM
- Ki ([4]; ref Rickli et al. (2015)): > 20 µM
- Ki ([5]; ref Rickli et al. (2015)): > 20 µM
- Ki ([6]; ref Rickli et al. (2015)): 1.1 ± 0.1 µM
- Ki ([7]; ref Rickli et al. (2015)): > 4.9 µM
- Ki ([8]; ref Rickli et al. (2015)): 4.1 ± 1.2 µM
- Ki ([9]; ref Rickli et al. (2015)): > 20 µM

SMILES: CC(C(=O)c1ccc2c(c1)OCO2)N1CCCC1 (stereo not drawn) [MDPPP, 3,4-methylenedioxy-α-pyrrolidinopropiophenone]
- Ki ([3]; ref Rickli et al. (2015)): 0.18 ± 0.05 µM
- Ki ([4]; ref Rickli et al. (2015)): > 20 µM
- Rat TAAR1 Receptor Binding Ki ± SD ([5]; ref Rickli et al. (2015)): bound the rat TAAR1
- Ki ([5]; ref Rickli et al. (2015)): 16 ± 6.7 µM
- Ki ([6]; ref Rickli et al. (2015)): 3.5 ± 1 µM
- Ki ([7]; ref Rickli et al. (2015)): > 15 µM
- Ki ([8]; ref Rickli et al. (2015)): 12 ± 1 µM
- Ki ([9]; ref Rickli et al. (2015)): > 10 µM

SMILES: CCCC(C(=O)c1ccc2c(c1)OCO2)N1CCCC1 (stereo not shown) [MDPV, 3,4-methylenedioxypyrovalerone]
- Ki ([3]; ref Simmler et al. (2013)): 0.01 ± 0.002 µM
- Ki ([4]; ref Simmler et al. (2013)): > 10 µM
- Rat TAAR1 Receptor Binding Ki ± SD ([5]; ref Simmler et al. (2013)): bound the rat TAAR1
- Ki ([5]; ref Simmler et al. (2013)): 7.2 ± 1.1 µM
- Ki ([6]; ref Simmler et al. (2013)): 0.08 ± 0.02 µM
- Ki ([7]; ref Simmler et al. (2013)): > 6 µM
- Ki ([8]; ref Simmler et al. (2013)): 2.9 ± 0.1 µM
- Ki ([9]; ref Simmler et al. (2013)): > 30 µM

SMILES: CCCCC(C(=O)c1ccc(C)cc1)N1CCCC1 (stereo not drawn) [MPHP, 4-methyl-α-pyrrolidinohexanophenone]
- Transporter-mediated monoamine efflux (NE) vs nisoxetine [1]: no monoamine efflux was observed
- Transporter-mediated monoamine efflux (5-HT) vs citalopram [2]: no monoamine efflux was observed

SMILES: CCCCC(NCC)C(=O)c1ccccc1 (stereo not shown) [NEH, N-ethylamine-hexanophenone]
- Transporter-mediated monoamine efflux (NE) vs nisoxetine [1]: did not produce any monoamine efflux; also recorded: did not induce any monoamine efflux
- Transporter-mediated monoamine efflux (5-HT) vs citalopram [2]: did not produce any monoamine efflux; also recorded: did not induce any monoamine efflux

SMILES: CCCC(C(=O)c1ccc(C)cc1)N1CCCC1 (stereo not shown) [Pyrovalerone, pyrovalerone]
- Ki ([3]; ref Simmler et al. (2013)): 0.03 ± 0.01 µM
- Ki ([4]; ref Simmler et al. (2013)): > 10 µM
- Ki ([5]; ref Simmler et al. (2013)): > 12.5 µM
- Ki ([6]; ref Simmler et al. (2013)): 0.06 ± 0.01 µM
- Ki ([7]; ref Simmler et al. (2013)): > 6 µM
- Ki ([8]; ref Simmler et al. (2013)): 5 ± 0.3 µM
- Ki ([9]; ref Simmler et al. (2013)): > 30 µM

SMILES: CCCCC(C(=O)c1ccccc1)N1CCCC1 (stereo not drawn) [α-PHP, α-pyrrolidinohexanophenone]
- Transporter-mediated monoamine efflux (NE) vs nisoxetine [1]: did not induce any monoamine efflux
- Transporter-mediated monoamine efflux (5-HT) vs citalopram [2]: did not induce any monoamine efflux

SMILES: CC(C(=O)c1ccccc1)N1CCCC1 (stereo not drawn) [α-PPP, α-pyrrolidinopropiophenone]
- Transporter-mediated monoamine efflux (NE) vs nisoxetine [1]: did not induce any monoamine efflux
- Transporter-mediated monoamine efflux (5-HT) vs citalopram [2]: did not induce any monoamine efflux

SMILES: CCCC(C(=O)c1ccccc1)N1CCCC1 (stereo not drawn) [α-PVP, α-pyrrolidinopentiophenone]
- Ki ([3]; ref Rickli et al. (2015)): 0.007 ± 0.002 µM
- Ki ([4]; ref Rickli et al. (2015)): > 20 µM
- Rat TAAR1 Receptor Binding Ki ± SD ([5]; ref Rickli et al. (2015)): bound the rat TAAR1
- Ki ([5]; ref Rickli et al. (2015)): 16 ± 6.4 µM
- Ki ([6]; ref Rickli et al. (2015)): 0.06 ± 0.02 µM
- Ki ([7]; ref Rickli et al. (2015)): > 15 µM
- Transporter-mediated monoamine efflux (NE) vs nisoxetine [1]: did not induce any monoamine efflux
- Ki ([8]; ref Rickli et al. (2015)): > 30 µM
- Ki ([9]; ref Rickli et al. (2015)): > 10 µM
- Transporter-mediated monoamine efflux (5-HT) vs citalopram [2]: did not induce any monoamine efflux
